Here are results for one compound from publication PMC11638965, “Leveraging Dual-Ligase Recruitment to Enhance Protein Degradation via a Heterotrivalent Proteolysis Targeting Chimera” (Journal of the American Chemical Society, 2024).

Type in all cases: cell-based
For experiment [1], the target named is T1, BRD2 (Homo sapiens, UniProt P25440).
T1 construct: HiBiT, is appended to the N-terminus of endogenous BRD2, BRD3, and BRD4; endogenous in cells
Nature of the experiment: Live cell kinetic HiBiT degradation assay, HiBiT-BRD2 HEK293 cells. The method, boiled down: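 HEK293 cells with CRISPR-inserted N-terminal HiBiT on endogenous BRD2 or BRD3, stably expressing LgBiT, equilibrated 3 h with Endurazine at 37 °C, then treated with threefold PROTAC dilution series. Luminescence read every 7 min for 24 h, normalized to pre-read and DMSO; Dmax as lowest signal, rate constant by one-phase exponential decay, Dmax50 from Dmax-concentration fit.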
(The HiBiT peptide binds its large partner to form an active luciferase.)

The target of experiment [2] is T1, BRD2. Description: Western blot dose-response degradation in HEK293 cells. The conditions noted are these: 6 h, mean ± S.E.M. of three experiments, values marked b mean ± S.D. of two. How it is done:
(§1) HEK293 cells were obtained from ATCC. HEK293 was cultured in DMEM supplemented with 10% (v/v) fetal bovine serum (FBS), 1% […] and 1% (v/v) penicillin/streptomycin (pen/strep) at 37 °C, 5% CO2, and 95% humidity.
(§2) HEK293 cells were plated at a density of 5 × 10^5 cells per well of a six well plate a day prior to initiation of the experiment. Compounds were dissolved to a 10 mM concentrated stock solution in DMSO from which the compounds were further diluted to a working concentration range of 1 μM to 100 pM in DMEM and was subsequently added to cells at the initiation of the experiment. An additional vehicle control was added to cells alongside compound treatments. Cells were left to incubate with compound for 6 h at 37 °C, 5% CO2, and 95% humidity. Cells were then subsequently washed twice with PBS before being harvested in RIPA buffer supplemented with protease inhibitor cocktail and Benzonase Nuclease before being store at −20 °C.
(§3) Protein concentration was determined using the BCA assay. Samples were then prepared in LDS buffer containing 5% 1 M DTT and subsequently loaded onto NuPAGE 4–12% Bis-Tris Midi gels, followed by the transfer of the proteins onto nitrocellulose membranes. The membranes were blocked for 1 h prior to incubation with the primary antibodies using 5% Milk TBST. Membranes were incubated at 4 °C in either BRD4(Ab128874), BRD3(Ab50818), BRD2(Ab139690), VHL(CST#68547) and CRBN(CST#71810) primary antibody overnight. Following overnight incubation, the membranes were incubated with complementary IRDye 800CW secondary antibody and a hFAB Rhodamine Anti-Tubulin Primary Antibody (loading control) for 1 h and then imaged with a Bio-Rad imager. All Western blots were analyzed for band intensities using Image Lab (Bio-Rad). The data extracted from these blots were then plotted and analyzed using Prism (v. 10.2.2, GraphPad). Linear regression curve fitting was used to calculate pDC50 values. The standard deviation of the pDC50 was calculated for all compounds that had two independent repeats and the standard error of the mean calculated for all compounds that had three independent repeats. All Western blotting figures were developed in Adobe illustrator.
(In general: In western blotting, separated proteins are transferred to a membrane and probed.)

The next experiment has as its target T2, BRD3 (Homo sapiens, UniProt Q15059).
T2 construct: HiBiT, is appended to the N-terminus of endogenous BRD2, BRD3, and BRD4; endogenous in cells
The experiment is described as above. The conditions noted are these: 6 h, mean ± S.E.M. of three experiments, values marked b mean ± S.D. of two. How it is done: as §1, §2, §3

The target of the next experiment is T3, BRD4^Long (Homo sapiens, UniProt O60885).
T3 construct: Western blot data for BET, CRBN and VHL protein levels; endogenous in cells; host or cells: HEK293 (ATCC)
Described as above. How it is done:
as §1, §2, §3

The target of another experiment is T4, BRD4^Short (Homo sapiens, UniProt O60885).
T4 construct: Western blot data for BET, CRBN and VHL protein levels; endogenous in cells; host or cells: HEK293 (ATCC)
The experiment is described as above. The settings on record: 6 h, mean ± S.E.M. of three experiments, values marked b mean ± S.D. of two. How it is done: as §1, §2, §3

The target of the next experiment is CRBN (Homo sapiens, UniProt Q96SW2). The description is as above. Set-up: Western blot data for BET, CRBN and VHL protein levels; endogenous in cells; host or cells: HEK293 (ATCC). How it is done:
as §1, §2, §3

The mark [3] stands for this setting: HEK293 cells, 6 h, Western blot, mean ± S.E.M. of three experiments, values marked b mean ± S.D. of two.

T1 sequence (P25440 whole entry): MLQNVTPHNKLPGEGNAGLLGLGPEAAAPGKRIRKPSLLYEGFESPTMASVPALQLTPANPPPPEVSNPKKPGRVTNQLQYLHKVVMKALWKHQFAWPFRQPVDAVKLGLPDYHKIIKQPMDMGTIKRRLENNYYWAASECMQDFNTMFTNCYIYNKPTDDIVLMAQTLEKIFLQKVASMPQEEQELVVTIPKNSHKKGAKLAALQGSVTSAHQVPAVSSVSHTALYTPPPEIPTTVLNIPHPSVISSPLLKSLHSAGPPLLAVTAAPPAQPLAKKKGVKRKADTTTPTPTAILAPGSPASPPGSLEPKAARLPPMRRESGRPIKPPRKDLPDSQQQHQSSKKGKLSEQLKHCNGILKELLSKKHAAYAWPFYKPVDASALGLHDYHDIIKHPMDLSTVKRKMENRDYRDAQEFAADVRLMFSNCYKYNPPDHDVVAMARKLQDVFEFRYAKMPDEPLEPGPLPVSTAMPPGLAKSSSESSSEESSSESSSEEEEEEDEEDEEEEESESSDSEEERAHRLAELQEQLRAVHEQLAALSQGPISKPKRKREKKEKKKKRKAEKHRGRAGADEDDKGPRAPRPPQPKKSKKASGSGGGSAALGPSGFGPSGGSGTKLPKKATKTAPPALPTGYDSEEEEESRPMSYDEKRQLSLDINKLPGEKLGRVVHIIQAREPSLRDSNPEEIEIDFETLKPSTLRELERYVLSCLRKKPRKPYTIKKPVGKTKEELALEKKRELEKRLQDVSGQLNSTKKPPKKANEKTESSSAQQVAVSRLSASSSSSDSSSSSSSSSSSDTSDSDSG
CRBN, sequence (Q96SW2 whole entry): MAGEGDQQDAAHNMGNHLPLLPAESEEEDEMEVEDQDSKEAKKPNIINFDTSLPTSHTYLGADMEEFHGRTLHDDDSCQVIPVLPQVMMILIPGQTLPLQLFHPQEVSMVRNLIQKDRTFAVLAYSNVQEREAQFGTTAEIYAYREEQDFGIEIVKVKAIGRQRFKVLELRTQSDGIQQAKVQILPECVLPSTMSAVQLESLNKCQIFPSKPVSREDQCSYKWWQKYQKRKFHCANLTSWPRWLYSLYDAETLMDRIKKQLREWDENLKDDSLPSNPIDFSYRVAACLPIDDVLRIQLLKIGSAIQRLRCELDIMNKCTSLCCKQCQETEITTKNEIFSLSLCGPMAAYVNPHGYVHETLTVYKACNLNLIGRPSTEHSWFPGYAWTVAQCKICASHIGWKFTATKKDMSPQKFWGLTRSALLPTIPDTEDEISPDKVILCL
T2 sequence (Q15059 whole entry): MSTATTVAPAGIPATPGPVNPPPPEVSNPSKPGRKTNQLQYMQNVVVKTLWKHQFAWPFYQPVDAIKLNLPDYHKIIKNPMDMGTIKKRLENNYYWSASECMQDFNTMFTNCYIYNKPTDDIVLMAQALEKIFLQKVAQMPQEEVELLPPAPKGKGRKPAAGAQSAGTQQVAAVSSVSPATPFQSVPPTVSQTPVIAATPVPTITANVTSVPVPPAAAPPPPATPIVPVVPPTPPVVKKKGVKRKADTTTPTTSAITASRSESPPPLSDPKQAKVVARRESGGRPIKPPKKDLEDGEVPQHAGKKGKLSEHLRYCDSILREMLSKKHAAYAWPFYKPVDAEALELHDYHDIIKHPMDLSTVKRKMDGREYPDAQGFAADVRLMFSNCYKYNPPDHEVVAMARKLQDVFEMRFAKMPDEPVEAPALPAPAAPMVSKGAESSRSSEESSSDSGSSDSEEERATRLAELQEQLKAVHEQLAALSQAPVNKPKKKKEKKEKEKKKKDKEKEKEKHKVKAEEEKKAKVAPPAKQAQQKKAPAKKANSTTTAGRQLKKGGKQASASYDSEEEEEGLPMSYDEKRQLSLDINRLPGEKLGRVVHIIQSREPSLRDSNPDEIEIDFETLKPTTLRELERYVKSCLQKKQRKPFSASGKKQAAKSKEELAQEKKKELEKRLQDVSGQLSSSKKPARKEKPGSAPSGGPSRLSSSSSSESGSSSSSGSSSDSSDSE

For `Cc1ncsc1-c1ccc(CNC(=O)[C@@H]2C[C@@H](O)CN2C(=O)[C@@H](NC(=O)COCC(C)(COCCOCCNc2cc3c(cc2F)C(=O)N(C2CCC(=O)NC2=O)C3=O)COCCOCCOC(=O)C[C@@H]2N=C(c3ccc(Cl)cc3)c3c(sc(C)c3C)-n3c(C)nnc32)C(C)(C)C)cc1` (mixture of isomers) [AB3125 (30), (14S)-8-((2-(2-((2-(2,6-dioxopiperidin-3-yl)-6-fluoro-1,3-dioxoisoindolin-5-yl)amino)ethoxy)ethoxy)methyl)-14-((2S,4R)-4-hydroxy-2-((4-(4-methylthiazol-5-yl)benzyl)carbamoyl)pyrrolidine-1-carbonyl)-8,15,15-trimethyl-12-oxo-3,6,10-trioxa-13-azahexadecyl 2-((S)-4-(4-chlorophenyl)-2,3,9-trimethyl-6H-thieno[3,2-f][1,2,4]triazolo[4,3-a][1,4]diazepin-6-yl)acetate], the DC50 was 31 nM at BRD2 [1] (HiBiT-BRD2 CRISPR knock-in HEK293 cells, live cell kinetic degradation, 24 h, read-out: Dmax 50 BRD2); 19 ± 7.2 nM at BRD2 [2]; 6.4 ± 0.8 nM at BRD3; 4 ± 2.1 nM at BRD4^Long (setting [3]); 4.4 ± 2.4 nM at BRD4^Short; 900 ± 720 nM on CRBN (setting [3]). Moreover, on BRD2 [1] (HiBiT-BRD2 knock-in HEK293 cells), the “λmax BRD2 (degradation rate)” value was 2.63 h⁻¹. The “fold decrease in BRD4^Long degradation vs 26” value at BRD4^Long (DC50, HEK293 Western blot) came out at 5.3 fold. Further, on CRBN (DC50, HEK293 Western blot), the “fold decrease in CRBN degradation vs 26” value was found to be 4.5 fold.
